Source: PubChem BioAssay AID248 (DTP/NCI, 2004)
Inconclusive results and toxic doses are left out. Cut-off read from the data, not from the text of the source: active = T/C of 150% or more; inactive = T/C below 125%.

Tested on: L1210 leukemia ip in BDF1 mice, survival T/C
Experiment: NCI In Vivo Anticancer Drug Screen. Data for tumor model L1210 Leukemia (intraperitoneal) in B6D2F1 (BDF1) mice
Conditions: endpoint: mean survival time, higher = longer survival
Summary of the method: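 Ratio derived from survival: compound-dosed mice over vehicle-dosed mice, all bearing a transplantable tumor.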

[1] = dose: 100.0 mg/kg/injection, schedule: Q04DX003 (ip), vehicle: saline
[2] = dose: 200.0 mg/kg/injection, schedule: Q04DX003 (ip), vehicle: saline
[3] = dose: 400.0 mg/kg/injection, schedule: Q04DX003 (ip), vehicle: saline
[4] = dose: 100.0 mg/kg/injection, schedule: Q01DX009 (ip), vehicle: saline with Tween-80
[5] = dose: 100.0 mg/kg/injection, schedule: Q04DX003 (ip), vehicle: saline with Tween-80
[6] = dose: 200.0 mg/kg/injection, schedule: Q01DX009 (ip), vehicle: saline with Tween-80
[7] = dose: 200.0 mg/kg/injection, schedule: Q04DX003 (ip), vehicle: saline with Tween-80
[8] = dose: 400.0 mg/kg/injection, schedule: Q04DX003 (ip), vehicle: saline with Tween-80
[9] = dose: 100.0 mg/kg/injection, schedule: Q04DX002 (ip), vehicle: Klucel (hydroxypropylcellulose) (HPC)
[10] = dose: 200.0 mg/kg/injection, schedule: Q04DX002 (ip), vehicle: Klucel (hydroxypropylcellulose) (HPC)
[11] = dose: 400.0 mg/kg/injection, schedule: Q04DX002 (ip), vehicle: Klucel (hydroxypropylcellulose) (HPC)
[12] = dose: 25.0 mg/kg/injection, schedule: Q01DX009 (ip), vehicle: saline
[13] = dose: 50.0 mg/kg/injection, schedule: Q01DX009 (ip), vehicle: saline
[14] = dose: 100.0 mg/kg/injection, schedule: Q01DX001 (ip), vehicle: carboxymethylcellulose (CMC)
[15] = dose: 200.0 mg/kg/injection, schedule: Q01DX001 (ip), vehicle: carboxymethylcellulose (CMC)
[16] = dose: 400.0 mg/kg/injection, schedule: Q01DX001 (ip), vehicle: carboxymethylcellulose (CMC)

Measured: T/C

CN(C)C(=O)/C=C/C(=O)N(C)C
inactive: [1] 103 % of control | [2] 103 % of control | [3] 108 % of control

Cc1cc(C)c(NC(=O)NCCCl)c(C)c1
inactive: dose: 50.0 mg/kg/injection, schedule: Q01DX009 (ip), vehicle: saline with Tween-80 103 % of control | [4] 109 % of control | [5] 91 % of control | [6] 116 % of control | [7] 93 % of control | [8] 117 % of control

COc1cc(C(C)=O)ccc1OS(C)(=O)=O
inactive: dose: 20.0 mg/kg/injection, schedule: Q01DX009 (ip), vehicle: Klucel (hydroxypropylcellulose) (HPC) 100 % of control | dose: 20.0 mg/kg/injection, schedule: Q04DX003 (ip), vehicle: Klucel (hydroxypropylcellulose) (HPC) 106 % of control | dose: 40.0 mg/kg/injection, schedule: Q01DX009 (ip), vehicle: Klucel (hydroxypropylcellulose) (HPC) 98 % of control | dose: 40.0 mg/kg/injection, schedule: Q04DX003 (ip), vehicle: Klucel (hydroxypropylcellulose) (HPC) 93 % of control | dose: 80.0 mg/kg/injection, schedule: Q01DX009 (ip), vehicle: Klucel (hydroxypropylcellulose) (HPC) 96 % of control | dose: 80.0 mg/kg/injection, schedule: Q04DX003 (ip), vehicle: Klucel (hydroxypropylcellulose) (HPC) 98 % of control

CSc1ncc(Br)c(Cl)n1
inactive: dose: 5.0 mg/kg/injection, schedule: Q01DX001 (ip), vehicle: carboxymethylcellulose (CMC) 95 % of control | dose: 10.0 mg/kg/injection, schedule: Q01DX001 (ip), vehicle: carboxymethylcellulose (CMC) 98 % of control | dose: 20.0 mg/kg/injection, schedule: Q01DX001 (ip), vehicle: carboxymethylcellulose (CMC) 95 % of control | dose: 40.0 mg/kg/injection, schedule: Q01DX001 (ip), vehicle: carboxymethylcellulose (CMC) 93 % of control | dose: 80.0 mg/kg/injection, schedule: Q01DX001 (ip), vehicle: carboxymethylcellulose (CMC) 93 % of control

CC(=O)SCN1C(=O)C2C3CCC(O3)C2C1=O (stereo not given)
inactive: [9] 91 % of control | [10] 91 % of control | [11] 105 % of control

OCCCCc1nccc2c1[nH]c1ccccc12
inactive: [12] 93 % of control | [13] 88 % of control | [14] 86 % of control | [15] 93 % of control | [16] 98 % of control

CCCCNC(=O)C1CC2c3cccc4c3c(cn4C)CC2N(C)C1 (stereo not given)
inactive: dose: 3.12 mg/kg/injection, schedule: Q01DX009 (ip), vehicle: saline 100 % of control | dose: 6.25 mg/kg/injection, schedule: Q01DX009 (ip), vehicle: saline 92 % of control | dose: 12.5 mg/kg/injection, schedule: Q01DX009 (ip), vehicle: saline 100 % of control | [12] 94 % of control | [13] 101 % of control

C[Si](C)(CCl)c1ccccc1
inactive: [1] 107 % of control | [2] 105 % of control | [3] 100 % of control

O=C(C(=Nc1ccc(Br)cc1)C(Nc1ccc(Br)cc1)C(=O)c1ccccc1)c1ccccc1 (stereo not given)
inactive: dose: 100.0 mg/kg/injection, schedule: Q01DX001 (ip), vehicle: saline 96 % of control | dose: 200.0 mg/kg/injection, schedule: Q01DX001 (ip), vehicle: saline 91 % of control | dose: 400.0 mg/kg/injection, schedule: Q01DX001 (ip), vehicle: saline 94 % of control

O=[N+]([O-])/C=C/c1ccc([N+](=O)[O-])cc1
inactive: dose: 6.25 mg/kg/injection, schedule: Q01DX005 (ip), vehicle: saline with Tween-80 110 % of control | dose: 12.5 mg/kg/injection, schedule: Q01DX005 (ip), vehicle: saline with Tween-80 104 % of control | dose: 25.0 mg/kg/injection, schedule: Q01DX005 (ip), vehicle: saline with Tween-80 114 % of control | dose: 50.0 mg/kg/injection, schedule: Q01DX009 (ip), vehicle: Klucel (hydroxypropylcellulose) (HPC) 93 % of control | dose: 100.0 mg/kg/injection, schedule: Q01DX009 (ip), vehicle: Klucel (hydroxypropylcellulose) (HPC) 97 % of control | dose: 100.0 mg/kg/injection, schedule: Q04DX003 (ip), vehicle: Klucel (hydroxypropylcellulose) (HPC) 96 % of control | dose: 200.0 mg/kg/injection, schedule: Q04DX003 (ip), vehicle: Klucel (hydroxypropylcellulose) (HPC) 104 % of control

COC1OC(CCl)C(OC(C)=O)C(OC(C)=O)C1OS(C)(=O)=O (stereo not given)
inactive: [9] 91 % of control | [10] 91 % of control | [11] 97 % of control

CC1(C)OC(O)C(C(O)C(O)C(O)C(=O)O)O1 (stereo not given)
inactive: dose: 100.0 mg/kg/injection, schedule: Q04DX002 (ip), vehicle: saline 98 % of control | dose: 200.0 mg/kg/injection, schedule: Q04DX002 (ip), vehicle: saline 109 % of control

CCOC(=O)Cn1c(=O)cc(C=O)c2ccccc21
inactive: [14] 91 % of control | [15] 91 % of control | [16] 89 % of control

O=C1NC(=O)C2(N1)C1CC3CC(C1)CC2C3 (stereo not given)
inactive: dose: 100.0 mg/kg/injection, schedule: Q01DX009 (ip), vehicle: alcohol 94 % of control | dose: 100.0 mg/kg/injection, schedule: Q04DX003 (ip), vehicle: alcohol 96 % of control | dose: 200.0 mg/kg/injection, schedule: Q01DX009 (ip), vehicle: alcohol 98 % of control | dose: 200.0 mg/kg/injection, schedule: Q04DX003 (ip), vehicle: alcohol 102 % of control | dose: 400.0 mg/kg/injection, schedule: Q01DX009 (ip), vehicle: alcohol 87 % of control | dose: 400.0 mg/kg/injection, schedule: Q04DX003 (ip), vehicle: alcohol 96 % of control

COc1ccc(C(=Nc2ccccc2)C(=Nc2ccccc2)c2ccc(OC)cc2)cc1
inactive: [5] 88 % of control | [7] 89 % of control | [8] 91 % of control

NOCc1nnc(Nc2ccccc2)s1
inactive: [4] 92 % of control | [6] 90 % of control

CN(C)CCNC1c2ccccc2CCc2ccccc21
inactive: dose: 18.75 mg/kg/injection, schedule: Q04DX003 (ip), vehicle: saline 98 % of control | dose: 37.5 mg/kg/injection, schedule: Q04DX003 (ip), vehicle: saline 104 % of control | dose: 75.0 mg/kg/injection, schedule: Q04DX003 (ip), vehicle: saline 101 % of control

COc1ccc2c(c1)CCCC2CC(=O)c1ccccc1 (stereo not given)
inactive: dose: 50.0 mg/kg/injection, schedule: Q01DX009 (ip), vehicle: acetone 98 % of control | dose: 100.0 mg/kg/injection, schedule: Q01DX009 (ip), vehicle: acetone 95 % of control | dose: 100.0 mg/kg/injection, schedule: Q04DX003 (ip), vehicle: acetone 86 % of control | dose: 198.0 mg/kg/injection, schedule: Q01DX009 (ip), vehicle: other 107 % of control | dose: 200.0 mg/kg/injection, schedule: Q01DX009 (ip), vehicle: acetone 98 % of control | dose: 200.0 mg/kg/injection, schedule: Q04DX003 (ip), vehicle: acetone 87 % of control | dose: 300.0 mg/kg/injection, schedule: Q01DX009 (ip), vehicle: other 104 % of control
